Values joined by “and” are separate entries in the source; they are usually repeats but may differ in a detail not shown here. Identical values can stand only once. “Also recorded” adds a separate entry of the source.
Assays:
[1] = tested on: venolären Endothelzellen (VEC); test: Time-lapse video microscopy of venular endothelial cell layers, opening/sealing of intercellular gaps (Versuchsgruppe 3); type: cell-based; conditions: for Abdichtung der Interzellularspalten: in presence of activated PMN and Thrombozyten (Abb. 3), 50 µM each
Experimental: In vitro kultivierte Schichten aus venolären Endothelzellen (VEC) werden unter Einsatz von Zeitraffervideomikrokinematographie (siehe Abb. 5) mit speziell entwickelter Methodik direkt beobachtet. Die durch aktivierte Thrombozyten (Anwendung von 1 U/ml Thrombin) und aktivierte PMN (Anwendung von 1 µM FMLP) induzierte Öffnung von Endothelbarrieren (= Öffnung der Interzellularspalten der Endothelzellen) kann so im Zeitablauf dokumentiert werden. Als Beispiel dient eine Serie von Aufnahmen, die den direkten Angriff der Blutzellen dokumentiert (Abb. 3) bzw. eine analoge Serie, die mit dem Überstand der aktivierten Blutzellen durchgeführt wurde (Abb. 4).
Die durch die Blutzellen zunächst geweiteten Interzellularspalten werden durch die Wirkstoffe wieder abgedichtet.
Abbildung 5 zeigt den experimentellen Aufbau für die videomikroskopische Beobachtung zellulärer Interaktionen an Endotheloberflächen: A-Gewebekulturmikroskop, B-Spezialinkubator mit Steuereinheit C, D-Gaszylinder mit 5% CO2, E-Waschflasche, F-Videokamera, G-Kamera-Kontroll-Einheit, H-Videorecorder, I-Monitor, J-Fotoapparat.

venoläre Endothelzellen = test: Hydraulic conductivity (LP) across confluent venular endothelial cell layers on porous filters (Versuchsgruppe 2 / Beispiel 12); type: cell-based, Meerschweinchen
Description: Als Studienobjekt dienten bis zur Konfluenz etablierte Schichten venolärer Endothelzellen auf porösen Filtern, die in einer speziell entwickelten Apparatur zur Trennung zweier Flüssigkeitskompartimente eingesetzt wurden. So konnte z. B. der druckabhängige Wassertransport (hydraulische Konduktivität = LP mit der Dimension 10^-5 cm / s / cm H2O) über die gezüchteten Endothelschichten unter dem Einfluß von Blutzellen unter entzündlichen Bedingungen studiert werden.
Details der Versuchsanordnung gehen aus den Abb. 1 und 2 hervor. Abbildung 1 zeigt ein wiederverwendbares, autoklavierbares Filterspannsystem bestehend aus (1) dem Formteil aus Polycarbonat, (2) dem Polycarbonatfilter, (3) dem stählernen Spannring und (4) dem Haltering aus Polycarbonat. Die Darstellung rechts neben dem Stapel der Einzelteile zeigt einen Querschnitt und eine Aufsicht des zusammengefügten Systems. Abbildung 2 zeigt eine Versuchsapparatur zur Messung hydraulischer Konduktivitäten von konfluenten Zellschichten, (1) Basisteil mit Magnetrührer (1a), (2) basales Flüssigkeitskompartiment mit Stopfen (2a) bzw. Zugang für Eppendorfpipetten (2b), (3) Steigrohr, (4) oberes Flüssigkeitskompartiment, zwischen den Flüssigkeitskompartimenten (2) und (4) liegt der ausgespannte Filter, (5), (6), (7) peristaltische Pumpen, (8) Vorratsgefäß für die Konstanthaltung des hydrostatischen Niveaus im oberen Flüssigkeitskompartiment, (9) Sammelgefäß für filtriertes Volumen.
Der Nachweis der Wirkung von Verbindungen als Hemmstoffe der Kontraktilität von venolären Endothelzellen erfolgt analog zur in Versuchsgruppe 2 charakterisierten Vorgehensweise unter Verwendung der dort beschriebenen Versuchsanordnung (vgl. Abb. 1 und 2) und wird hier am Beispiel des Apigenins (chemische Formel siehe Tabelle 1) dargestellt.
Venoläre Endothelzellen werden unter Verwendung einer speziellen, nachstehend beschriebenen Technik isoliert und auf porösen Polycarbonatfiltern (Porendurchmesser 0,4 µm, Fa. Nucleopore, Pleasanton, USA) unter Verwendung ebenfalls nachstehend beschriebener Zellkulturtechniken bis zur Konfluenz kultiviert. Diese endothelbeschichteten Filter werden in einer speziellen Apparatur (siehe Abb. 1 und 2) zur Trennung zweier Flüssigkeitskompartimente eingesetzt. Als Meßgröße für die Kontraktilität der venolären Endothelzellen dient der druckabhängige Wassertransport (hydraulische Konduktivität = LP mit der Dimension 10^-5 cm / s / cm H2O) über die gezüchteten Endothelschichten, der bei Kontraktion der Endothelzellen durch Übergang von der pflastersteinartigen zur sphärischen Form (vgl. Versuchsgruppe 3 mit Abb. 3 und 4) und die damit einhergehende Öffnung von Interzellularspalten zunimmt
Eine Lösung von Plasmasalzen (=physiologische Salzlösung, Zusammensetzung siehe unten) mit Zusatz von 0,1% Albumin und von aus peripherem Blut wie nachfolgend beschrieben isolierten Granulozyten (=PMN, Konzentration 10^5/ml) und Thrombozyten (10^6/ml) wird mit 1 µM FMLP und 1 U/ml Thrombin versetzt. Durch Zentrifugieren (10 min bei 1000 g) wird der Überstand gewonnen und in das obere Flüssigkeitskompartiment der Versuchsapparatur eingebracht. Dadurch erhöht sich - als Ausdruck der Kontraktion der venoiären Endothelzellen - die hydraulische Konduktivität gegenüber dem Ausgangswert (Nr. 1 in Tabelle 4) um ca. 1600 % (Nr. 10 in Tabelle 4).
Zur Dissoziation des Myokardgewebes werden zunächst mit Krebs-Henseleitlösung (KHL) nach Langendorff bei 120 mmHg 10 min perfundierte Meerschweinchenherzen 35 min lang mit einem in KHL angesetzten Proteasegemisch perfundiert (42 mg Kollagenase D + 60 mg Dispase II + 5 mg Trypsin + 58 mg Serumalbumin aus Rinderblut, gelöst in 42 ml Ca^2+-freier KHL; 1 ml/min; Kollagenase und Dispase: Boehringer, Mannheim, Trypsin: 1:250, Serva, Heidelberg). […]

ischämische Herzschäden = conditions: oral, initial 100 mg, then 20-40 mg/d; 17187 Patienten; cited from earlier work
Meerschweinchenherzen = test: Working guinea pig heart, ischaemia/reperfusion with activated PMN and platelets (Versuchsgruppe 1); design: species or system Meerschweinchen; conditions: for Herzleistung [% der initialen Leistung] / Interstitielles Volumen / Koronarfluß [% des Basalflusses]: flavone derivative 3*10^-5 M, individual hearts
Experimental: Pathogene Wirkung von gleichzeitig aktivierten PMN und Thrombozyten im ischämischen Herzen. Als Studienobjekt dienten arbeitende, also Volumen gegen bestimmte Drucke auswerfende Meerschweinchenherzen. […] Thrombin, FMLP ([…]-Formyl-[…]) und […] Interaktion der Blutzellen mit dem koronaren Endothel bei diesen Versuchen. Tabelle 3: ^i Als Blutzellpräparate wurden eingesetzt: a) hochreine PMN (1-2*10^5/ml), […] Vorinkubation mit 100 μM […]) bzw. […] von PMN und TASS (bzw. T) in jeweils analogen Konzentrationen. Tabelle 3 gibt die unter […] bei […] von PMN und Thrombozyten (TASS = […] Vorinkubation mit 100μM […] = nicht […].

[2] = FMLP-activated PMN alone (Nr. 4-6), 50 µM
[3] = IPA + PMN (10^5/ml) + Thrombin (1 U/ml) + 1 µM FMLP, substance 50 µM, control without substance 5,40, baseline 1,80
[4] = IPA + supernatant of thrombin-activated Thrombozyten (10^6/ml) and FMLP-activated PMN (10^5/ml), substance 50 µM, control without substance 31,2, baseline 1,80
[5] = PMN+T (platelets not preincubated with Acetylsalicylsäure)
[6] = PMN+TASS (platelets preincubated 1 h with 100 µM Acetylsalicylsäure, washed)
[7] = acute application of the flavonoid alone
[8] = flavonoid applied in combination with Acetylsalicylsäure

Row | Compound | Abdichtung der Interzellularspalten [1] | Effect on increase of LP (venoläre Endothelzellen; [2]) | LP [10^-5 cm/s/cm H2O] (venoläre Endothelzellen; [3]) | LP [10^-5 cm/s/cm H2O] (venoläre Endothelzellen; [4]) | ischämische Herzschäden (ischämische Herzschäden) | Verschlechterung der postischämischen Funktionsdaten (ΔP/Δt; interstitielles Volumen; Koronarfluß) (Meerschweinchenherzen; platelets preincubated with 100 µM Acetylsalicylsäure, no flavonoid) | LP [10^-5 cm/s/cm H2O] (venoläre Endothelzellen; IPA + PMN (10^5/ml) + Thrombozyten (10^6/ml) + Thrombin (1 U/ml) + 1 µM FMLP, each substance 50 µM, control without substance 33,7, baseline 1,80) | Effect on increase of LP (venoläre Endothelzellen; simultaneously activated Thrombozyten and PMN (Nr. 7-9), 50 µM each) | Kontraktion der venolären Endothelzellen (hydraulische Konduktivität) (venoläre Endothelzellen; supernatant of activated PMN and Thrombozyten (Nr. 10, 11), 50 µM) | Herzleistung [% der initialen Leistung] (Meerschweinchenherzen; [5]) | Interstitielles Volumen (Meerschweinchenherzen; [5]) | Koronarfluß [% des Basalflusses] (Meerschweinchenherzen; [5]) | Herzleistung [% der initialen Leistung] (Meerschweinchenherzen; [6]) | Interstitielles Volumen (Meerschweinchenherzen; [6]) | Koronarfluß [% des Basalflusses] (Meerschweinchenherzen; [6]) | Verschlechterung der postischämischen Funktionsdaten (ΔP/Δt; interstitielles Volumen; Koronarfluß) (Meerschweinchenherzen; [7]) | Verschlechterung der postischämischen Funktionsdaten (ΔP/Δt; interstitielles Volumen; Koronarfluß) (Meerschweinchenherzen; [8]) | Abdichtung der Spalten / Reparatur der Endothelschicht ([1]; supernatant of activated PMN and Thrombozyten, blood cells absent (Abb. 4), without Acetylsalicylsäure) | protektive Wirkung (Meerschweinchenherzen; ischaemic heart, Versuchsgruppe 1)
1 | CC(=O)Oc1ccccc1C(=O)O [Acetylsalicylsäure, reference compound] | nicht zur Abdichtung der Interzellularspalten | keinen Effekt | 5,78 ±0,68 10^-5 cm/s/cm H2O | 28,2 ± 1,7 10^-5 cm/s/cm H2O | signifikant | lediglich teilweisen Abschwächung | – | – | – | – | – | – | – | – | – | – | – | – | –
2 | O=c1cc(-c2ccc(O)cc2)oc2cc(O)cc(O)c12 [Apigenin] | – | keine Erhöhung von LP | 1,75 ± 0,06 10^-5 cm/s/cm H2O | 1,90 ± 0,07 10^-5 cm/s/cm H2O | – | – | 25,5 ± 4,1 10^-5 cm/s/cm H2O | hemmt diesen Effekt nur schwach | fast vollständig gehemmt | 52 % der initialen Leistung and 67 % der initialen Leistung and 74 % der initialen Leistung and 73 % der initialen Leistung and 64 % der initialen Leistung and 71 % der initialen Leistung | 142 µL/g and 201 µL/g and 177 µL/g and 166 µL/g and 130 µL/g | 56 % des Basalflusses (2×) and 49 % des Basalflusses and 53 % des Basalflusses and 59 % des Basalflusses and 65 % des Basalflusses | 94 % der initialen Leistung and 96 % der initialen Leistung and 89 % der initialen Leistung and 88 % der initialen Leistung and 97 % der initialen Leistung | 95 µL/g and 120 µL/g and 105 µL/g and 102 µL/g and 97 µL/g and 91 µL/g | 102 % des Basalflusses and 107 % des Basalflusses and 98 % des Basalflusses and 95 % des Basalflusses and 91 % des Basalflusses and 109 % des Basalflusses | abgeschwächt | vollständig aufgehoben | – | –
3 | C[C@@H]1O[C@@H](OC[C@H]2O[C@@H](Oc3c(-c4ccc(OCCO)c(OCCO)c4)oc4cc(OCCO)cc(O)c4c3=O)[C@H](O)[C@@H](O)[C@@H]2O)[C@H](O)[C@H](O)[C@H]1O [Trihydroxyethylrutosid] | nicht zur Abdichtung der Interzellularspalten | – | – | – | – | – | – | – | – | – | – | – | – | – | – | – | – | fast vollständige Reparatur der Endothelschicht; also recorded: Endothel-reparativen Effekt | –
4 | Catechin [reference compound] | – | – | – | – | – | – | – | – | – | 36 % der initialen Leistung and 39 % der initialen Leistung and 31 % der initialen Leistung and 26 % der initialen Leistung and 18 % der initialen Leistung | 351 µL/g and 310 µL/g and 311 µL/g and 317 µL/g and 370 µL/g | 37 % des Basalflusses and 27 % des Basalflusses and 34 % des Basalflusses and 17 % des Basalflusses and 14 % des Basalflusses and 28 % des Basalflusses | 75 % der initialen Leistung and 68 % der initialen Leistung and 67 % der initialen Leistung and 81 % der initialen Leistung (2×) and 77 % der initialen Leistung | 145 µL/g and 157 µL/g and 163 µL/g and 148 µL/g and 166 µL/g | 88 % des Basalflusses and 78 % des Basalflusses and 82 % des Basalflusses and 79 % des Basalflusses and 85 % des Basalflusses | – | – | – | keine protektive Wirkung
5 | Dihydroxyethylrutosid | – | – | – | – | – | – | – | – | – | 49 % der initialen Leistung and 58 % der initialen Leistung and 65 % der initialen Leistung and 72 % der initialen Leistung and 78 % der initialen Leistung and 74 % der initialen Leistung | 144 µL/g and 186 µL/g and 151 µL/g and 157 µL/g and 165 µL/g | 49 % des Basalflusses and 51 % des Basalflusses and 39 % des Basalflusses and 47 % des Basalflusses and 64 % des Basalflusses and 69 % des Basalflusses | 93 % der initialen Leistung and 94 % der initialen Leistung and 86 % der initialen Leistung and 84 % der initialen Leistung and 89 % der initialen Leistung | 98 µL/g and 104 µL/g and 95 µL/g and 115 µL/g and 107 µL/g and 109 µL/g | 102 % des Basalflusses and 107 % des Basalflusses and 98 % des Basalflusses and 93 % des Basalflusses and 95 % des Basalflusses and 89 % des Basalflusses | abgeschwächt | vollständig aufgehoben | – | –

Reference: patent EP1100539B1, “COMBINATION OF ACTIVE SUBSTANCES, ESPECIALLY FOR THE PROPHYLAXIS AND THERAPY OF ISCHAEMIC ORGANIC LESIONS AND REPERFUSION SYNDROMES” (Vascular Biotech GmbH, priority 1998, dated 2000)
